These compounds were tested against human Nav1.8 (Homo sapiens (Human), UniProt Q9Y5Y9) (assay: Nav1.8 Qube® Assay (automated 384-well patch-clamp)). Conditions: human Nav1.8 channels stably expressed in HEK 293 cells.
Assay type: cell-based
Source text: Qube® Assay Experimental Procedure

human Nav1.8, sequence (Q9Y5Y9 whole entry): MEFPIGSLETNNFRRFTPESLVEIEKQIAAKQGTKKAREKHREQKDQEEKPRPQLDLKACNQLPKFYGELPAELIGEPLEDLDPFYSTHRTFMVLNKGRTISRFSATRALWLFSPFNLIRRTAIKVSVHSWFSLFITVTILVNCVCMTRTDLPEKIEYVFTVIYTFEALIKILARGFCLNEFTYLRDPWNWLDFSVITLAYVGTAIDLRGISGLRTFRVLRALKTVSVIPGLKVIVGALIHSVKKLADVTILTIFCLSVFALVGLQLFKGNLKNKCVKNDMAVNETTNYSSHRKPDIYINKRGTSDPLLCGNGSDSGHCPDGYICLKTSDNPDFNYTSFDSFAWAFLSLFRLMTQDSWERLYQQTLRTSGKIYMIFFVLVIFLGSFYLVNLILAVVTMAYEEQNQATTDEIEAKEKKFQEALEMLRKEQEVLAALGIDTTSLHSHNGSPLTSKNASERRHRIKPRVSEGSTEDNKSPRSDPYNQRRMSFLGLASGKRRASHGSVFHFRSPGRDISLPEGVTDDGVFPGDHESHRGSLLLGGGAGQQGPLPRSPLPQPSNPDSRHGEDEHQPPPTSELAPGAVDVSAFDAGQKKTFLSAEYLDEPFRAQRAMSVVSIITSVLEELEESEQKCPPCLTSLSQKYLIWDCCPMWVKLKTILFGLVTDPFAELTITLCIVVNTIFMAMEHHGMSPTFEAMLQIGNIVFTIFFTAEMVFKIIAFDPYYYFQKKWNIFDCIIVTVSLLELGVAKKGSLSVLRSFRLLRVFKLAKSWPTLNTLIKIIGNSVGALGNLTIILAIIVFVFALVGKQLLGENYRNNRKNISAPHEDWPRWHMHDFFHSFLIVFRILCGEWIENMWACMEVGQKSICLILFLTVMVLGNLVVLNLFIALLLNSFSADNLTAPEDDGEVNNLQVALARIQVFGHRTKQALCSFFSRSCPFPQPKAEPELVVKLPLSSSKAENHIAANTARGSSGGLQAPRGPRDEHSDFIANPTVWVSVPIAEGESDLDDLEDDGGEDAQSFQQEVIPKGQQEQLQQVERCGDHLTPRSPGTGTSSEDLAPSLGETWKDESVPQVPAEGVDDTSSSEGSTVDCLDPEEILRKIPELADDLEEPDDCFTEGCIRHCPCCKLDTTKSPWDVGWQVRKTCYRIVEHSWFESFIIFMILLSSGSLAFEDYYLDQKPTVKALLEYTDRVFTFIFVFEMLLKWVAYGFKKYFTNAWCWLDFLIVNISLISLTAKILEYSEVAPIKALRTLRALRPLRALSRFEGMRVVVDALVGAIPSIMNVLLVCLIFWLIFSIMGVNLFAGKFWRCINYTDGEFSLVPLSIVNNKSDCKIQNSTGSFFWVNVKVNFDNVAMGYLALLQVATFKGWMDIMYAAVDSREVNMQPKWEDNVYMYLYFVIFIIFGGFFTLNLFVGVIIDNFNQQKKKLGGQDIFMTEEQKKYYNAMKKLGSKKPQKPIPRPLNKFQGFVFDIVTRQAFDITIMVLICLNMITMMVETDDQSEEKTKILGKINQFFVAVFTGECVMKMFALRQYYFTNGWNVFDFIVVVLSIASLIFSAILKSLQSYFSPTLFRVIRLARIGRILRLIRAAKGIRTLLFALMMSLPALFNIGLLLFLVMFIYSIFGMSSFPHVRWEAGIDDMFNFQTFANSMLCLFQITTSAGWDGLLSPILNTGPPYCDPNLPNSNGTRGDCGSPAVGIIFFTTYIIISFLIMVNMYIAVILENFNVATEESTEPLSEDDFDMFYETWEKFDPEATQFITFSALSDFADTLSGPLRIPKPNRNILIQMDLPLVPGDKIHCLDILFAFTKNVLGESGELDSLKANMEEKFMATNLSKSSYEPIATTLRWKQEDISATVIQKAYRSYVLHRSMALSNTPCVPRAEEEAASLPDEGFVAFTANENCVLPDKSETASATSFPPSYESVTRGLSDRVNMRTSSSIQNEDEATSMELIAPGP

SMILES	IC50
O=C1NC[C@@H](C(=O)NC(c2ccc(Cl)cc2)c2cccc(F)c2F)O1 (single isomer, unassigned) [Example 29A, (S)-N-((R or S)-(4-chlorophenyl)(2,3-difluorophenyl)methyl)-2-oxooxazolidine-5-carboxamide]	14 nM
O=C1NC[C@@H](C(=O)NC(c2ccc(Cl)cc2)c2ccc(F)cn2)O1 (single isomer, unassigned) [Example 23A, (S)-N-((R or S)-(4-chlorophenyl)(5-fluoropyridin-2-yl)methyl)-2-oxooxazolidine-5-carboxamide]	1350 nM
O=C1NC[C@@H](C(=O)NC(c2ccc(Cl)cc2)c2ccnc(C(F)(F)F)n2)O1 (single isomer, unassigned) [Example 11A, (S)-N-((R or S)-(4-chlorophenyl)(2-(trifluoromethyl)pyrimidin-4-yl)methyl)-2-oxooxazolidine-5-carboxamide]	23 nM
O=C1NC[C@@H](C(=O)NC(c2ccccc2)C2C3CC4CC(C3)CC2C4)O1 (stereo partly drawn) [Example 21, (5S)-N-((adamantan-2-yl)(phenyl)methyl)-2-oxooxazolidine-5-carboxamide]	293 nM
O=C1NC[C@@H](C(=O)NC(c2ccc(Cl)cc2)c2ccc(Cl)c(C(F)(F)F)n2)O1 (single isomer, unassigned) [Example 2A, (S)—N—((R or S)-(5-chloro-6-(trifluoromethyl)pyridin-2-yl)(4-chlorophenyl)methyl)-2-oxooxazolidine-5-carboxamide]	0.6 nM
O=C1NC[C@@H](C(=O)NC(c2ccc(Cl)cc2)c2cccs2)O1 (stereo partly drawn) [Example 24, (5S)-N-((4-chlorophenyl)(thio-phen-2-yl)methyl)-2-oxooxazolidine-5-carboxamide]	144 nM
O=C1NC[C@@H](C(=O)NC(c2ccc(F)c(Cl)c2)c2cc(C(F)(F)F)[nH]n2)O1 (single isomer, unassigned) [Example 5A, (S)—N—((R or S)-(3-chloro-4-fluorophenyl)(5-(trifluoromethyl)-1H-pyrazol-3-yl)methyl)-2-oxooxazolidine-5-carboxamide]	4.8 nM
O=C1NC[C@@H](C(=O)NC(c2ccc(Cl)cc2)c2coc(C(F)(F)F)n2)O1 (single isomer, unassigned) [Example 18A, (S)-N-((R or S)-(4-chlorophenyl)(2-(trifluoromethyl)oxazol-4-yl)methyl)-2-oxooxazolidine-5-carboxamide]	31 nM
O=C1NC[C@@H](C(=O)NC(c2ccc(Cl)cc2)C23CC(C(F)(F)F)(C2)C3)O1 (single isomer, unassigned) [Example 4B, (S)-N-((R or S)-(4-chlorophenyl)(3-(trifluoromethyl)bicyclo[1.1.1]pentan-1-yl)methyl)-2-oxooxazolidine-5-carboxamide]	312 nM
O=C1NC[C@@H](C(=O)NC(COc2ccc(F)c(Cl)c2)c2ccc(F)c(Cl)c2)O1 (single isomer, unassigned) [Example 8B, (S)—N—((R or S)-2-(3-chloro-4-fluorophenoxy)-1-(3-chloro-4-fluorophenyl)ethyl)-2-oxooxazolidine-5-carboxamide]	4.6 nM
O=C1NC[C@@H](C(=O)NC(c2cccc(Cl)c2)C2CC2c2ccccc2)O1 (single isomer, unassigned) [Example 26B, (5S)-N-((R or S)-(3-chlorophenyl) ((cis or trans)-2-phenylcyclopropyl)methyl)-2-oxooxazolidine-5-carboxamide]	70 nM
O=C1NC[C@@H](C(=O)NC(c2ccc(F)c(Cl)c2)c2ccc(F)c(OCC(F)(F)F)n2)O1 (single isomer, unassigned) [Example 1B, (S)—N—((R or S)-(3-chloro-4-fluorophenyl)(5-fluoro-6-(2,2,2-trifluoroethoxy)pyridin-2-yl)methyl)-2-oxo-oxazolidine-5-carboxamide]	4 nM
O=C1NC[C@@H](C(=O)NC(c2ccc(Cl)cc2)c2c[nH]c(C(F)(F)F)n2)O1 (single isomer, unassigned) [Example 17A, (S)-N-((R or S)-(4-chlorophenyl)(2-(trifluoromethyl)-1H-imidazol-4-yl)methyl)-2-oxooxazolidine-5-carboxamide]	593 nM

The remaining lines, values ahead:

IC50	SMILES
7.9 nM	O=C1NC[C@@H](C(=O)NC(c2ccc(OC(F)(F)F)c(Cl)c2)c2ccnc(C(F)(F)F)n2)O1 (single isomer, unassigned) [Example 52A, (S)-N-((R or S)-(3-chloro-4-(trifluoromethoxy)phenyl)(2-(trifluoro-methyl)pyrimidin-4-yl)methyl)-2-oxooxazolidine-5-carboxamide]
574 nM	O=C1NC[C@@H](C(=O)NC(c2ccc(Cl)c(C(F)(F)F)n2)C2CCC(F)(F)CC2)O1 (single isomer, unassigned) [Example 63B, (S)-N-((R or S)-(5-chloro-6-(trifluoromethyl)pyridin-2-yl)(4,4-difluoro-cyclohexyl)methyl)-2-oxooxazolidine-5-carboxamide]
22 nM	O=C1NC[C@@H](C(=O)NC(c2ccc(OC(F)(F)F)c(Cl)c2)c2cnn(C(F)(F)F)c2)O1 (single isomer, unassigned) [Example 53A, (S)-N-((R or S)-(3-chloro-4-(trifluoro-methoxy)phenyl)(1-(trifluoromethyl)-1H-pyrazol-4-yl)methyl)-2-oxooxazolidine-5-carboxamide]
268 nM	O=C1NC[C@@H](C(=O)NC(COc2ccc(C(F)(F)F)nc2)c2ccc(F)c(Cl)c2)O1 (stereo partly drawn) [Example 66, (5S)-N-(1-(3-chloro-4-fluorophenyl)-2-((6-(trifluoro-methyl)pyridin-3-yl)oxy)ethyl)-2-oxooxazolidine-5-carboxamide]
17 nM	O=C1NC[C@@H](C(=O)NC(c2ccc(F)c(Cl)c2)c2csc(C(F)(F)F)n2)O1 (single isomer, unassigned) [Example 44B, (S)—N—((R or S)-(3-chloro-4-fluorophenyl)(2-(trifluoro-methyl)thiazol-4-yl)methyl)-2-oxooxazolidine-5-carboxamide]
87 nM	O=C1NC[C@@H](C(=O)NC(c2ccc(Cl)cc2)C2CCCCCC2)O1 (stereo partly drawn) [Example 45, (5S)-N-((4-chlorophenyl)(cyclo-heptyl)methyl)-2-oxooxazolidine-5-carboxamide]
12 nM	COc1ncccc1C(NC(=O)[C@@H]1CNC(=O)O1)c1ccc(F)c(Cl)c1 (single isomer, unassigned) [Example 58A, (S)-N-((R or S)-(3-chloro-4-fluorophenyl)(2-methoxypyridin-3-yl)methyl)-2-oxooxazolidine-5-carboxamide]
1160 nM	O=C1NC[C@@H](C(=O)NC(c2ccc(Cl)cc2)C2CCC(F)(F)C2)O1 (single isomer, unassigned) [Example 57D, (S)-N-((R or S)-(4-chlorophenyl)((R or S)-3,3-difluorocyclopentyl)methyl)-2-oxooxazolidine-5-carboxamide]
17 nM	O=C1NC[C@@H](C(=O)NC(c2ccc(Cl)cc2)c2ccc(Cl)cc2OC(F)(F)F)O1 (single isomer, unassigned) [Example 47B, (S)-N-((R or S)-(4-chloro-2-(trifluoromethoxy)phenyl)(4-chlorophenyl)-methyl)-2-oxooxazolidine-5-carboxamide]
5 nM	CC(C)c1cccc(C(NC(=O)[C@@H]2CNC(=O)O2)c2ccc(Cl)cc2)c1 (single isomer, unassigned) [Example 32A, (S)-N-((R or S)-(4-chlorophenyl)(3-isopropylphenyl)methyl)-2-oxooxazolidine-5-carboxamide]
229 nM	O=C1NC[C@@H](C(=O)NC(c2ccc(Cl)cc2)C23C4C5C6C4C2C6C53)O1 (single isomer, unassigned) [Example 56A, (S)—N—((R or S)-(4-chlorophenyl)(cuban-1-yl)methyl)-2-oxooxazolidine-5-carboxamide]
94 nM	O=C1NC[C@@H](C(=O)NC(c2ccc(Cl)cc2)c2ccnc(C(F)(F)F)c2)O1 (some centres unmarked) [Example 34]
4.8 nM	O=C1NC[C@@H](C(=O)NC(c2ccc(Cl)cc2)c2cccc(C3CC3)c2)O1 (single isomer, unassigned) [Example 33A, (S)-N-((R or S)-(4-chlorophenyl)(3-cyclopropylphenyl)methyl)-2-oxooxazolidine-5-carboxamide]
39 nM	Cn1nc(C(NC(=O)[C@@H]2CNC(=O)O2)c2ccc(F)c(Cl)c2)cc1C(F)(F)F (single isomer, unassigned) [Example 62A, (S)-N-((R or S)-(3-chloro-4-fluorophenyl)(1-methyl-5-(trifluoromethyl)-1H-pyrazol-3-yl)methyl)-2-oxooxazolidine-5-carboxamide]
5.1 nM	CC(C)(C)c1csc(C(NC(=O)[C@@H]2CNC(=O)O2)c2ccc(Cl)cc2)n1 (single isomer, unassigned) [Example 39A, (S)-N-((R or S)-(4-(tert-butyl)thiazol-2-yl)(4-chlorophenyl)methyl)-2-oxooxazolidine-5-carboxamide]
12 nM	CC(C)c1cccc(C(NC(=O)[C@@H]2CNC(=O)O2)c2ccc(Cl)cc2)c1 (single isomer, unassigned) [Example 32B, (S)-N-((R or S)-(4-chlorophenyl)(3-isopropylphenyl)methyl)-2-oxooxazolidine-5-carboxamide]
8.8 nM	O=C1NC[C@@H](C(=O)NC(c2ccc(F)c(Cl)c2)c2cccc(C(F)(F)F)n2)O1 (single isomer, unassigned) [Example 49A, (S)-N-((R or S)-(3-chloro-4-fluorophenyl)(6-(trifluoromethyl)pyridin-2-yl)methyl)-2-oxooxazolidine-5-carboxamide]
389 nM	O=C1NC[C@@H](C(=O)NC(c2ccc(F)c(Cl)c2F)[C@@H]2C[C@@H]3[C@H](C2)C3(F)F)O1 (single isomer, unassigned) [Example 74B, (S)-N-((R or S)-(3-chloro-2,4-difluorophenyl) ((trans)-6,6-difluorobicyclo[3.1.0]hexan-3-yl)methyl)-2-oxooxazolidine-5-carboxamide]
964 nM	O=C1NC[C@@H](C(=O)NC(c2ccc(Cl)cc2)c2ccc(OCC(F)(F)F)nn2)O1 (single isomer, unassigned) [Example 73A, (S)-N-((R or S)-(4-chlorophenyl)(6-(2,2,2-trifluoroethoxy)pyridazin-3-yl)methyl)-2-oxooxazolidine-5-carboxamide]

Source: US12516046B2, “2-oxo-oxazolidine-5-carboxamides as NAV1.8 inhibitors” (Merck Sharp & Dohme LLC, priority 2020, dated 2026)
